Experimental data: ChEMBL document CHEMBL2440076, “New triarylpyrazoles as broad-spectrum anticancer agents: design, synthesis, and biological evaluation” (Eur J Med Chem, 2013)

Assays:
Format in all cases: functional
MDA-MB-468 = assay: Growth inhibition of human MDA-MB-468 cells assessed as cell growth at 10 uM after 48 hrs by sulforhodamine B assay; details: MDA-MB-468, 48 h, read-out: Activity
OVCAR-5 = assay: Growth inhibition of human OVCAR5 cells assessed as cell growth at 10 uM after 48 hrs by sulforhodamine B assay; details: OVCAR-5, 48 h, read-out: Activity
SK-MEL-2 [1] = assay: Growth inhibition of human SK-MEL-2 cells assessed as cell growth at 10 uM after 48 hrs by sulforhodamine B assay; details: SK-MEL-2, 48 h, read-out: Activity
SF-268 = assay: Growth inhibition of human SF268 cells assessed as cell growth at 10 uM after 48 hrs by sulforhodamine B assay; details: SF-268, 48 h, read-out: Activity
BT-549 = assay: Growth inhibition of human BT549 cells after 48 hrs by sulforhodamine B assay; details: BT-549, 48 h
TK-10 = assay: Growth inhibition of human TK10 cells after 48 hrs by sulforhodamine B assay; details: TK-10, 48 h; for CC50: read-out: LC50 (the source's name)
UACC-62 = assay: Growth inhibition of human UACC62 cells after 48 hrs by sulforhodamine B assay; details: UACC-62, 48 h
SK-MEL-2 [2] = assay: Growth inhibition of human SK-MEL-2 cells after 48 hrs by sulforhodamine B assay; details: SK-MEL-2, 48 h
M14 = assay: Growth inhibition of human M14 cells after 48 hrs by sulforhodamine B assay; details: M14, 48 h
SNB-75 = assay: Growth inhibition of human SNB75 cells after 48 hrs by sulforhodamine B assay; details: SNB-75, 48 h
SNB-19 = assay: Growth inhibition of human SNB19 cells after 48 hrs by sulforhodamine B assay; details: SNB-19, 48 h
SF-539 = assay: Growth inhibition of human SF539 cells after 48 hrs by sulforhodamine B assay; details: SF-539, 48 h

Row | Compound | growth at 10 µM (MDA-MB-468) | growth at 10 µM (OVCAR-5) | growth at 10 µM (SK-MEL-2 [1]) | growth at 10 µM (SF-268) | GI50 (BT-549) | LC50 (50% lethal concentration) (BT-549) | TGI (BT-549) | GI50 (TK-10) | TGI (TK-10) | CC50 (TK-10) | GI50 (UACC-62) | LC50 (50% lethal concentration) (UACC-62) | TGI (UACC-62) | GI50 (SK-MEL-2 [2]) | LC50 (50% lethal concentration) (SK-MEL-2 [2]) | TGI (SK-MEL-2 [2]) | GI50 (M14) | LC50 (concentration killing 50% of cells) (M14) | TGI (M14) | GI50 (SNB-75) | other results
1 | COc1cc(-c2nn(-c3cccc(NC(=O)Nc4ccc(Cl)c(C(F)(F)F)c4)c3)cc2-c2ccncc2)ccc1Cl | -7.22% | 35.8% | -57.8% | 13.8% | 2.36 µM | > 32.5 µM | 10.2 µM | 1.52 µM | 13.5 µM | > 32.5 µM | 0.737 µM | 11.6 µM | 2.09 µM | 1.01 µM | 17.5 µM | 2.58 µM | 1.08 µM | 19.1 µM | 3.71 µM | 1.28 µM | LC50 (lethal concentration, 50% net cell kill) (SNB-75): > 32.5 µM; TGI (SNB-75): 10.3 µM; GI50 (SNB-19): 1.24 µM; LC50 (concentration killing 50% of cells) (SNB-19): > 32.5 µM; TGI (SNB-19): 9.24 µM; GI50 (SF-539): 1.65 µM; LC50 (concentration killing 50% of cells) (SF-539): 17.5 µM; TGI (SF-539): 6.34 µM
2 | O=C(Nc1cccc(-n2cc(-c3ccncc3)c(-c3ccc(Cl)c(O)c3)n2)c1)Nc1ccc(Cl)c(C(F)(F)F)c1 | -49.5% | 23.3% | -60.4% | -34.5% | 1.25 µM | > 32.5 µM | 8.07 µM | 1.5 µM | 11.9 µM | > 32.5 µM | 0.627 µM | 3.16 µM | 1.45 µM | 0.798 µM | 5.84 µM | 1.73 µM | 0.886 µM | > 32.5 µM | 2.77 µM | 0.678 µM | LC50 (lethal concentration, 50% net cell kill) (SNB-75): > 32.5 µM; TGI (SNB-75): 3.2 µM; GI50 (SNB-19): 1.12 µM; LC50 (concentration killing 50% of cells) (SNB-19): > 32.5 µM; TGI (SNB-19): 4.86 µM; GI50 (SF-539): 0.782 µM; LC50 (concentration killing 50% of cells) (SF-539): > 32.5 µM; TGI (SF-539): 2.39 µM
3 | COc1cc(-c2nn(-c3cccc(NC(=O)c4ccc(Cl)c(C(F)(F)F)c4)c3)cc2-c2ccncc2)ccc1Cl | 54.4% | 91.3% | 18.9% | 46.7% | 7.54 µM | > 32.5 µM | > 32.5 µM | 20.4 µM | > 32.5 µM | > 32.5 µM | 2.1 µM | > 32.5 µM | > 32.5 µM | 1.9 µM | > 32.5 µM | 19.7 µM | 2.79 µM | > 32.5 µM | > 32.5 µM | 2.19 µM | LC50 (lethal concentration, 50% net cell kill) (SNB-75): > 32.5 µM; TGI (SNB-75): 29.2 µM; GI50 (SNB-19): 8.68 µM; LC50 (concentration killing 50% of cells) (SNB-19): > 32.5 µM; TGI (SNB-19): > 32.5 µM; GI50 (SF-539): 4.13 µM; LC50 (concentration killing 50% of cells) (SF-539): > 32.5 µM; TGI (SF-539): 20.3 µM
